“Also recorded” adds a separate entry of the source.

In one test the test system is hM4Di. Kind of test: Chemogenetic inhibition of AgRP neurons with C21. Particulars: C21 0.5 mg/kg by osmotic pump, TET3 knockdown mice. Format: in vivo, mouse. The text has this: To determine the relevance of activated AgRP neurons from TET3 knockdown, the chemogenetic tool of designer receptors exclusively activated by designer drugs (DREADDs) was used. AAV-sgTet3 was co-injected with an AAV containing a Cre-dependent hM4Di-mCherry transgene (AAV-hM4Di) (Krashes, M. J. et al., 2011, Journal of Clinical Investigations, 121:1424-1428) bilaterally into the ARC of Cas9+ mice, followed by implantation of an osmotic pump to infuse DREADD agonist 21 (C21) (Thompson, K. J. et al., 2018, ACS Pharmacology & Translational Science, 1:61-72) or saline (FIG. 9K). AgRP neuron-specific expression of hM4Di was confirmed by immunofluorescence (FIG. 11).
Three days after bilateral ARC co-injection with AAV-sgTet3 and AAV-h4MDi, a mini-osmotic pump (model 1007D, Alzet) was implanted subcutaneously. The osmotic pump was filled with either sterile saline solution or DREADD agonist compound 21 (C21) dihydrochloride (0.5 mg/kg, HB6124-25 mg, Hello Bio). Food intake measurement and ITT were performed at day 5 and day 9 post-injection, respectively. For food intake assays, food pellets were weighed at 10:00 each day for 3 continuous days and an average of three-day food intake was calculated.

Another test deals with estrogen receptor. Particulars: cited from earlier work.
For test [1], the system named is TET3 and CD163. Kind of test: TET3 expression in mouse peritoneal macrophages. The following applies: wild-type mouse peritoneal macrophages. Format: cell-based. The method, then: Peritoneal macrophages were collected from the peritoneal cavity of WT or Mye-Tet3 ko mice by injecting 10 mL of PBS followed by gentle abdominal massaging for 5 min. Cells were pelleted by centrifugation at 1500×g at 4 °C for 8 min. To remove red blood cells, cells were resuspended in […] (Biolegend, 420302, diluted to 1×) and allowed to stand for 5 min, followed by addition of PBS to stop the reaction and twice wash with PBS by centrifugation. Macrophages were enriched by plating cells in RPMI 1640 supplemented with 10% FBS and 1% Anti-Anti for 2 h at 37 °C in a 5% humidified CO2 tissue culture incubator. Non-adherent cells were then removed with three PBS washes.
After wash in cold PBS, adherent cells were fixed with 4% paraformaldehyde in PBS for 15 min and permeabilized with 0.4% TritonX-100 for 15 min. Cells were blocked in 5% donkey serum/PBS-T at RT for 30 min and quickly washed once with PBS-T before antibody incubation. […] Cells were covered with antifade mounting medium with DAPI (Vector laboratories, H-2000), scoped using a Keyence BZ-X700 fluorescence microscope.

Test [2] has as its system TET3 and CD163. The test can be described thus: TET3 expression and TET3/CD163 double-positive cells in human MDMs. Format: cell-based. The following applies: for TET3 expression: TGF-β1 10 ng/ml or MCP1 200 ng/ml; for number of TET3/CD163 double-positive cells: TGF-β1 10 ng/ml, 48 h. The method, then: To prepare CM-HSC and CM-Endo, LX-2 and human endometriosis cells were seeded in 24-well plates (2.5×10^5 cells/well) with their respective growth media and allowed to grow to ~50% confluency. Cells were then washed with PBS and incubated with fresh growth media (500 μl/well) for an additional 24 h. Cell supernatant (CM-HSC/CM-Endo) was collected and immediately used to treat MDMs after 1:1 dilution with their respective growth media. In the control group, only respective growth media were used.
After wash in cold PBS, adherent cells were fixed with 4% paraformaldehyde in PBS for 15 min and permeabilized with 0.4% TritonX-100 for 15 min. Cells were blocked in 5% donkey serum/PBS-T at RT for 30 min and quickly washed once with PBS-T before antibody incubation. Primary antibodies were diluted in 2% donkey serum/PBS-T. For CD163/TET3 double staining, cells were incubated with anti-TET3 (GeneTex, GTX121453, diluted at 1:400 for MDMs; Millipore Sigma, ABE290, diluted at 1:500 for mouse peritoneal macrophages) and anti-CD163 (Abcam, ab156769, diluted at 1:400 for MDMs; Santa Cruz Biotechnology, sc-58965, diluted at 1:200 for peritoneal macrophages) overnight at 4 °C. The next day, cells were washed 3 times with PBS-T and incubated in 0.4% Triton X-100/PBS with donkey anti-Rabbit IgG Fluor 594 (Invitrogen, A-21207, diluted at 1:500) and goat anti-Mouse lgG Fluor 488 (Invitrogen, A-11029, diluted at 1:500) for 1 h at RT. Cells were covered with antifade mounting medium with DAPI (Vector laboratories, H-2000), scoped using a Keyence BZ-X700 fluorescence microscope.
Total RNAs were extracted from cells using PureLink RNA Mini Kit. 0.5-1 μg total RNA was reverse transcribed to cDNA in a reaction volume of 20 μL using PrimeScript RT Reagent Kit. Real-time quantitative PCR was performed in a 15 μL reaction volume containing 0.5-1 μL of cDNA using SsoAdvanced Universal SYBR Green Supermix in a Bio-Rad iCycler. Gene expression levels were normalized against RPLP0.

Another test deals with IL-1β. Particulars: phase III clinical trial; cited from earlier work.
In a further test the test system is IL-6 receptor. The following applies: rats; cited from earlier work.

With `Cl.Cl.c1ccc2c(c1)N=C(N1CCNCC1)c1ccccc1N2` [C21], in the test with hM4Di, the hyperphagia entry is given as “suppressed hyperphagia” and the systemic insulin resistance entry is “reversed systemic insulin resistance”.
Regarding `CCCCN(C)C(=O)CCCCCCCCCC[C@@H]1Cc2cc(O)ccc2[C@H]2CC[C@]3(C)[C@@H](O)CC[C@H]3[C@H]12` [ICI 164,384], the estrogen receptor degradation result in the test with estrogen receptor is “induces its degradation without affecting its mRNA expression”.
Turning to MCP1: MCP1, also known as CCL2, in the test on TET3 and CD163 [1], the “TET3 expression and TET3/CD163 double-positive cells” value is “increase TET3 expression and TET3/CD163 double-positive cells”. In addition, in the test with TET3 and CD163 [2], the TET3 expression result was “resulted in similar effects”.
Consider “TGF-β1: purified TGF-β1 (PeproTech, 100-21)”, for which the “TET3 expression and TET3/CD163 double-positive cells” value with TET3 and CD163 [1] is “increase TET3 expression and TET3/CD163 double-positive cells”. Moreover, in the test on TET3 and CD163 [2], the TET3 expression result is listed as “increased TET3 expression; also recorded: increased TET3 mRNA”; the “number of TET3/CD163 double-positive cells” value was “increased TET3 expression and the number of TET3/CD163 double-positive cells; also recorded: increase in the number of TET3/CD163 double-positive cells”. In the test on TET3 and CD163 [2] (listed as TGF-b1), the TET3 expression entry is “increased TET3 expression both at mRNA and protein levels”; the “number of TET3/CD163 double-positive cells” value was “increase in the number of TET3/CD163 double-positive cells”.
Consider “canakinumab: a human monoclonal antibody specific for IL-1β”, for which, in the test with IL-1β, the “incident NSCLC and lung cancer mortality” value was “substantially reduced incident NSCLC and lung cancer mortality in a dose-dependent manner”.
With “tocilizumab: an anti-IL-6 receptor monoclonal antibody”, the endometriosis burden result with IL-6 receptor is recorded as “significantly reduced endometriosis burden”.

Values taken from patent publication US20260355199A1, “COMPOSITIONS AND METHODS FOR TREATING OR PREVENTING NONALCOHOLIC STEATOHEPATITIS (NASH), ANOREXIA, DEPRESSION, ENDOMETRIOSIS, AND OTHER DISEASES OR DISORDERS” (priority 2022, published 2026).
